pIC50: −log10 of the molar value. Where a name gives a salt, the structure may show the parent alone. Read-outs that look alike come from different tables or passages of the source.
Columns and labels:
[1] = tested on: TTXs sodium channels (ND7/23 cells); experiment: TTXs-sodium channel influx assay (fluorescence, membrane potential kit); type: cell-based, rat; conditions: veratridine 100 μM
Procedure: ND7/23 rat dorsal root ganglion-derived cell line endogenously expresses a mixed population of TTXs sodium channels (such as Nav1.3, Nav1.2, Nav1.1, Nav1.6). These cells lack of TTXr sodium channels as shown by the absence of their respective transcripts. ND7/23 cells are grown in Dulbecco's Modified Eagle Medium (DMEM, Invitrogen, CA—USA) supplemented with 10% Foetal Bovine Serum (FBS, Invitrogen, CA—USA) and 1 mM sodium piruvate. The cells are seeded at 50,000 cells/well on 96 poly-L-lysine-coated plates and further incubated for 18-24 h before use.
The Membrane Potential Kit Assay (Molecular Devices, CA—USA), based on a negatively charged fluorescent dye able to monitor changes in membrane potential caused by the sodium influx due to the channel opening, is used for the assay.
Cells are incubated with the dye loading for 30 minutes at 25° C. Then, 100 nM of the toxin Anemonia sulcata (used as enhancer of the channel opener response) alone or in the presence of TTX (as reference standard) or test compound are added for further 15 minutes.
The fluorescence (excitation: 530 nm, emission: 565 nm wavelength) is measured before and after (40-45 s) the automated injection of the sodium channel opener veratridine (100 μM) using a Victor plate reader (Perkin Elmer, MA—USA).
The inhibition curves are calculated from 5 concentrations, each in triplicate, and the IC50 determined using a linear regression analysis.
The results, obtained with some compounds which are representative of the entire class of compounds of the invention are reported in Table 1.

CYP2D6 = CYP2D6 (Homo sapiens (Human), UniProt P10635); experiment: Inhibition of Cytochrome P4502D6 (CYP2D6) using Supersomes; type: in vitro ADME; conditions: AMMC substrate
Procedure: The inhibition of Cytochrome P4502D6 (CYP2D6) is assessed by performing in vitro inhibition studies using Supersomes, microsomes derived from baculovirus infected insect cells; the baculoviruses are engineered to express one or more drug metabolizing enzyme cDNAs. Supersomes catalyze the same enzymatic reactions as human liver microsome enzymes, but they contain much higher enzyme activity than other microsome sources (Crespi C. L. and Penman B. W., Advances Pharmacology, 43, 171-188 (1997); Crespi C. L. and Miller V. P., Analytical Biochemistry, 248, 188-190 (1997)).
Kits with Supersomes are Supplied by GENTEST (MA, USA).
Test compound is dissolved in DMSO 500× the highest final concentration desired in the IC50 assay. 30 ml of deionized water is pre-warmed to 37° C. and all kit components are placed on ice. For each well of column 1, 149.4 μL of NADPH-Cofactor Mix, (187.5 μl of Cofactors, 150 μl of G6PDH, 100 μl of Control Protein and 14.56 ml of 37° C. water) are added.
In each well from Column 2 to 12, 100 μl of Cofactor/DMSO mix (40 μL DMSO in 9.96 ml of NADPH-Cofactor Mix) are added. To each well of column 1, 0.6 μl of test compound or positive control are added. 50 μl from each well of column 1 are serially diluted to column 8. The extra 50 μl from column 8 are discarded. The plate is covered and pre-incubated at 37° C. for 10 minutes.
Preparation of enzyme/substrate mix: 7.92 ml of pre-warmed deionized water, 75 μl of enzyme, 3 μl of 10 mM AMMC and 2 ml of pre-warmed buffer are mixed.
After the pre-incubation time (10′), 100 μl of enzyme/substrate mix to each well from column 1 to 10 are added. The plate is incubated at 37° C. for 30 minutes. After this time, 75 μl of Stop Reagent to each well are added. For blank controls, 100 μl of enzyme/substrate mix are added to columns 11 and 12.
Plates are read at the Victor plate reader (Perkin Elmer, MA—USA) at 390 nm excitation and 460 nm emission wavelengths.

[2] = read-out: IC50 (Fluorinated derivative)
[3] = reference standards of the closest prior art, read-out: IC50 (Corresponding de-fluorinated derivative)

Chain of CYP2D6 (P10635 whole entry): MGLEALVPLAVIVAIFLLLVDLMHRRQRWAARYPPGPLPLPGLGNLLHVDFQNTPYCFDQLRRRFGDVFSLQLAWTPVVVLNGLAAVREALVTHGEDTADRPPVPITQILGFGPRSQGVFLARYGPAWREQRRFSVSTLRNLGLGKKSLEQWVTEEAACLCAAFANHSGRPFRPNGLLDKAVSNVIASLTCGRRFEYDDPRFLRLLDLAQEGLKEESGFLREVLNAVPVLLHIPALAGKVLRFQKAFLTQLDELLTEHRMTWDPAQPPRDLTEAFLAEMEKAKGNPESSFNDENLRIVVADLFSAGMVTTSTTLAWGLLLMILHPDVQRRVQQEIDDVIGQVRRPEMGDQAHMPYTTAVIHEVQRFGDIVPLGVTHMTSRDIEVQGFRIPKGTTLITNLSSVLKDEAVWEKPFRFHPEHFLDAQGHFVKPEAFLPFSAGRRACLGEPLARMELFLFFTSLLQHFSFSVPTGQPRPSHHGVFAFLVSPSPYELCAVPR

Row | Compound | pIC50 [1] | pIC50 (CYP2D6; [2]) | pIC50 (CYP2D6; [3])
1 | O=C(CNCC(F)(F)c1cccc(OCCCC(F)(F)F)c1)N1CCOCC1 [Example 1-21, 2-{2,2-Difluoro-2-[3-(4,4,4-trifluorobutoxy)-phenyl]-ethylamino}-1-(morpholin-4-yl)-ethanone, hydrochloride] | 5.14 | < 4.40 | –
2 | CCCCOc1cccc(CCN(CCOC)CC(=O)N(C)C)c1 [2-{[2-(3-Butoxyphenyl)-ethyl]-(2-methoxyethyl)-amino}-N,N-dimethyl-acetamide, hydrochloride] | – | – | 5.47
3 | CCCCCCOc1cccc(CCNCC(=O)N(C)C)c1 [2-[2-(3-Hexyloxyphenyl)-ethylamino]-N,N-dimethyl-acetamide, hydrochloride] | – | – | 6.05
4 | CCCCOc1cccc(C(F)(F)CNCC(=O)N2CCC2)c1 [Example 1-42, 2-[2,2-Difluoro-2-(3-butoxyphenyl)-ethylamino)-1-(azetidin-1-yl)-ethanone, hydrochloride] | 5.30 | – | –
5 | CN(C)C(=O)CNCC(F)(F)c1cccc(OCCCC(F)(F)F)c1 [Example 1-7, 2-{2,2-Difluoro-2-[3-(4,4,4-trifluorobutoxy)-phenyl]-ethylamino}-N,N-dimethyl-acetamide, hydrochloride] | 5.44 | – | –
6 | CCCCOc1cccc(CCNCC(=O)N(CC)CC)c1 [2-[2-(3-Butoxyphenyl)-ethylamino]-N,N-diethyl-acetamide, hydrochloride] | – | – | 5.60
7 | CN(C)C(=O)CNCC(F)(F)c1cccc(OCc2ccccc2)c1 [Example 1-14, 2-[2,2-Difluoro-2-(3-benzyloxyphenyl)-ethylamino]-N,N-dimethyl-acetamide, hydrochloride] | 5.92 | – | –
8 | CN(C)C(=O)CNCCc1cccc(OCc2ccccc2)c1 [2-[2-(3-Benzyloxyphenyl)-ethylamino]-N,N-dimethyl-acetamide, hydrochloride] | – | – | 4.97
9 | CCCCOc1cccc(C(F)(F)CNCC(=O)N(CCC)CCC)c1 [Example 1-3, 2-[2,2-Difluoro-2-(3-butoxyphenyl)-ethylamino]-N,N-dipropyl-acetamide, hydrochloride] | 6.24 | 4.62 | –
10 | CCCCOc1cccc(CCNCC(=O)N(C)C)c1 [2-[2-(3-Butoxyphenyl)-ethylamino]-N,N-dimethyl-acetamide, hydrochloride] | – | – | 5.24
11 | CCCCOc1cccc(C(F)(F)CN(CCCOC)CC(=O)N(C)C)c1 [Example 3-2, 2-{[2,2-Difluoro-2-(3-butoxyphenyl)-ethyl]-(3-methoxypropyl)-amino}-N,N-dimethyl-acetamide, hydrochloride] | 5.62 | < 4.40 | –
12 | CN1CCN(C(=O)CNCC(F)(F)c2cccc(OCCCC(F)(F)F)c2)CC1 [Example 1-28, 2-{2,2-Difluoro-2-[3-(4,4,4-trifluorobutoxy)-phenyl)-ethylamino}-1-(4-methylpiperazin-1-yl)-ethanone, hydrochloride] | 5.49 | – | –
13 | CCCCCOc1cccc(C(F)(F)CNCC(=O)N(C)C)c1 [Example 1-2, 2-[2,2-Difluoro-2-(3-pentyloxyphenyl)-ethylamino]-N,N-dimethyl-acetamide, hydrochloride] | 5.89 | < 4.40 | –
14 | O=C(CNCCc1cccc(OCCCC(F)(F)F)c1)N1CCOCC1 [2-{2-[3-(4,4,4-trifluorobutoxy)phenyl]-ethylamino}-1-(morpholin-4-yl)-ethanone, hydrochloride] | – | – | 5.74
15 | CCCCOc1cccc(CCNC(C)C(=O)N(C)C)c1 (stereo not drawn) [2-[2-(3-Butoxyphenyl)-ethylamino]-N,N-dimethyl-propanamide, hydrochloride] | – | – | 5.24
16 | CCCCOc1cccc(C(F)(F)CNCC(=O)N(CC)CC)c1 [Example 1-32, 2-[2,2-Difluoro-2-(3-butoxyphenyl)-ethylamino]-N,N-diethyl-acetamide, hydrochloride] | 5.55 | – | –

Row | Compound | pIC50 [1] | pIC50 (CYP2D6; [2]) | pIC50 (CYP2D6; [3])
17 | CCCCOc1cccc(CCNCC(=O)N(CCC)CCC)c1 [2-[2-(3-Butoxyphenyl)-ethylamino]-N,N-dipropyl-acetamide, hydrochloride] | – | – | 6.15
18 | O=C(CNCCc1cccc(OCCCC(F)(F)F)c1)N1CCCC1 [2-{2-[3-(4,4,4-trifluorobutoxy)-phenyl]-ethylamino}-1-(pyrrolidin-1-yl)-ethanone, hydrochloride] | – | – | 5.30
19 | CCCCOc1cccc(CCNCC(=O)N2CCCCC2)c1 [2-[2-(3-Butoxyphenyl)-ethylamino]-1-(piperidin-1-yl)-ethanone, hydrochloride] | – | – | 5.96
20 | CCCCOc1cccc(C(F)(F)CNCC(=O)N(C)C)c1 [Example 1-1, 2-[2,2-Difluoro-2-(3-butoxyphenyl)-ethylamino]-N,N-dimethyl-acetamide, hydrochloride] | 6.00 | – | –
21 | CCCCOc1cccc(C(F)(F)CNCC(=O)N2CCCC2)c1 [Example 1-15, 2-[2,2-Difluoro-2-(3-butoxyphenyl)-ethylamino]-1-(pyrrolidin-1-yl)-ethanone, hydrochloride] | 5.96 | – | –
22 | CCCCCCOc1cccc(C(F)(F)CNCC(=O)N(C)C)c1 [Example 1-6, 2-[2,2-Difluoro-2-(3-hexyloxyphenyl)-ethylamino]-N,N-dimethyl-acetamide, hydrochloride] | 6.85 | – | –
23 | CCCCOc1cccc(C(F)(F)CNC(COC)C(=O)N(C)C)c1 (stereo not drawn) [Example 2-2, 2-[2,2-Difluoro-2-(3-butoxyphenyl)-ethylamino]-3-methoxy-N,N-dimethyl-propanamide] | 5.21 | – | –
24 | CCCCOc1cccc(C(F)(F)CN(C)CC(=O)N(C)C)c1 [Example 3-1, 2-{[2,2-Difluoro-2-(3-butoxyphenyl)-ethyl]-methylamino}-N,N-dimethyl-acetamide, hydrochloride] | 5.64 | – | –
25 | CCCCOc1cccc(C(F)(F)CNCC(=O)N2CCN(C)CC2)c1 [Example 1-26, 2-[2,2-Difluoro-2-(3-butoxyphenyl)-ethylamino]-1-(4-methylpiperazin-1-yl)-ethanone, hydrochloride] | 4.63 | – | –
26 | CCCCOc1cccc(CCNCC(=O)N2CCCC2)c1 [2-[2-(3-Butoxyphenyl)-ethylamino]-1-(pyrrolidin-1-yl)-ethanone, hydrochloride] | – | – | 5.52
27 | CCCCCOc1cccc(CCNCC(=O)N(C)C)c1 [2-[2-(3-Pentyloxyphenyl)-ethylamino]-N,N-dimethyl-acetamide, hydrochloride] | – | – | 5.46
28 | CCCCOc1cccc(C(F)(F)CNCC(=O)N2CCCCC2)c1 [Example 1-29, 2-[2,2-Difluoro-2-(3-butoxyphenyl)-ethylamino]-1-(piperidin-1-yl)-ethanone, hydrochloride] | 5.74 | – | –
29 | CCCCOc1cccc(C(F)CNCC(=O)N(C)C)c1 (stereo not drawn) [Example 4-1, 2-[2-Fluoro-2-(3-butoxyphenyl)-ethylamino]-N,N-dimethyl-acetamide, hydrochloride] | 5.82 | – | –
30 | O=C(CNCC(F)(F)c1cccc(OCCCC(F)(F)F)c1)N1CCCC1 [Example 1-18, 2-{2,2-Difluoro-2-[3-(4,4,4-trifluorobutoxy)-phenyl]-ethylamino}-1-(pyrrolidin-1-yl)-ethanone] | 6.02 | – | –
31 | CCCCOc1cccc(C(F)(F)CN(CCOC)CC(=O)N(C)C)c1 [Example 3-3, 2-{[2,2-Difluoro-2-(3-butoxyphenyl)-ethyl]-(2-methoxyethyl)-amino}-N,N-dimethyl-acetamide, hydrochloride] | 5.85 | – | –
32 | CCCCOc1cccc(CCN(CCCOC)CC(=O)N(C)C)c1 [2-{[2-(3-Butoxyphenyl)-ethyl]-(3-methoxypropyl)-amino}-N,N-dimethyl-acetamide, hydrochloride] | – | – | 5.14

Source: patent US9447029B2, “Fluorinated arylalkylaminocarboxamide derivatives” (NEWRON PHARMACEUTICALS S.P.A., priority 2011, dated 2016)
